Laboratory results reported in US20100099561A1, “HETEROBICYCLIC ALKYLTHIO-BRIDGED ISOXAZOLINES” (E.I. DU PONT DE NEMOURS AND COMPANY, priority 2008, published 2010).

How the values were obtained:
Type in all cases: in vivo
[1] = test system: large crabgrass (Digitaria sanguinalis); experiment: Test A preemergence, large crabgrass; details: 0 to 100 scale (0 no effect, 100 complete control)
Summary of the method: (§1)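 Pre: directed soil spray after sowing in loam/sand. Post: seedlings at 1–2 leaf stage, 2–10 cm. Vehicle: non-phytotoxic solvent mix + surfactant. Greenhouse ~10 d; visual injury 0–100 vs untreated controls.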

[2] = test system: giant foxtail (Setaria faberi); experiment: Test A preemergence, giant foxtail; details: 0 to 100 scale (0 no effect, 100 complete control)
Summary of the method: as §1

[3] = test system: morningglory (Ipomoea spp.); experiment: Test A preemergence, morningglory; details: 0 to 100 scale (0 no effect, 100 complete control)
Summary of the method: as §1

[4] = test system: pigweed (Amaranthus retroflexus); experiment: Test A preemergence, pigweed; details: 0 to 100 scale (0 no effect, 100 complete control)
Summary of the method: as §1

[5] = test system: velvetleaf (Abutilon theophrasti); experiment: Test A preemergence, velvetleaf; details: 0 to 100 scale (0 no effect, 100 complete control)
Summary of the method: as §1

[6] = test system: wheat (Triticum aestivum); experiment: Test A preemergence, wheat; details: 0 to 100 scale (0 no effect, 100 complete control)
Summary of the method: as §1

[7] = test system: large crabgrass (Digitaria sanguinalis); experiment: Test A postemergence, large crabgrass; details: 0 to 100 scale (0 no effect, 100 complete control)
Summary of the method: as §1

[8] = test system: giant foxtail (Setaria faberi); experiment: Test A postemergence, giant foxtail; details: 0 to 100 scale (0 no effect, 100 complete control)
Summary of the method: as §1

[9] = test system: pigweed (Amaranthus retroflexus); experiment: Test A postemergence, pigweed; details: 0 to 100 scale (0 no effect, 100 complete control)
Summary of the method: as §1

[10] = test system: velvetleaf (Abutilon theophrasti); experiment: Test A postemergence, velvetleaf; details: 0 to 100 scale (0 no effect, 100 complete control)
Summary of the method: as §1

[11] = test system: wheat (Triticum aestivum); experiment: Test A postemergence, wheat; details: 0 to 100 scale (0 no effect, 100 complete control)
Summary of the method: as §1

[12] = test system: wheat (Triticum aestivum); experiment: Test B preemergence, wheat; details: Preemergence, scale 0 to 100
Summary of the method: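 After sowing in loam–sand, soil surfaces received the compound preemergence; greenhouse growth followed for 13–15 d. Control compared with untreated plants, scored 0–100.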

wild oat (Avena fatua) = experiment: Test B preemergence, wild oat; details: scale 0 to 100
Source text: (§2) Seeds of plant species selected from blackgrass (Alopecurus myosuroides), downy bromegrass (Bromus tectorum), green foxtail (Setaria viridis), Italian ryegrass (Lolium multiflorum), wheat (Triticum aestivum), wild oat (Avena fatua), catchweed bedstraw (Galium aparine), bermudagrass (Cynodon dactylon), Surinam grass (Brachiaria decumbens), cocklebur (Xanthium strumarium), corn (Zea mays), large crabgrass (Digitaria sanguinalis), woolly cupgrass (Eriochloa villosa), giant foxtail (Setaria faberii), goosegrass (Eleusine indica), johnsongrass (Sorghum halepense), kochia (Kochia scoparia), lambsquarters (Chenopodium album), morningglory (Ipomoea coccinea), nightshade (eastern black nightshade, Solanum ptycanthum), yellow nutsedge (Cyperus esculentus), pigweed (Amaranthus retroflexus), ragweed (common ragweed, Ambrosia elatior), soybean (Glycine max), sunflower (common oilseed sunflower, Helianthus annuus), Russian thistle (Salsola kali), and velvetleaf (Abutilon theophrasti) were planted into a blend of loam soil and sand and treated preemergence with test compounds formulated in a non-phytotoxic solvent mixture which included a surfactant. Treated plants and controls were maintained in a greenhouse for 13 to 15 days, after which time all species were compared to controls and visually evaluated. Plant response ratings, summarized in Table B, are based on a scale of 0 to 100 where 0 is no effect and 100 is complete control. A dash (-) response means no test result.

corn (Zea mays) = experiment: Test B preemergence, corn; details: scale 0 to 100
Source text: as §2

[13] = test system: giant foxtail (Setaria faberii); experiment: Test B preemergence, giant foxtail; details: scale 0 to 100
Source text: as §2

[14] = test system: johnsongrass (Sorghum halepense); experiment: Test B preemergence, johnsongrass; details: scale 0 to 100
Source text: as §2

[15] = test system: morningglory (Ipomoea coccinea); experiment: Test B preemergence, morningglory; details: scale 0 to 100
Source text: as §2

[16] = test system: nightshade (eastern black nightshade, Solanum ptycanthum); experiment: Test B preemergence, nightshade; details: scale 0 to 100
Source text: as §2

rice (Oryza sativa) = experiment: Test B flooded paddy test, rice; details: Flood, scale 0 to 100
Summary of the method: (§3)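 Paddy-water application to 2-leaf plants in pots held under 3 cm of flooding; response is a 0–100 visual control rating against controls after 13 to 15 days, and a dash marks a missing result.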

[17] = test system: ducksalad (Heteranthera limosa); experiment: Test B flooded paddy test, ducksalad; details: Flood, scale 0 to 100
Summary of the method: as §3

CC1(C)CC(S(=O)(=O)Cc2c(C(F)(F)F)nc3n(c2=O)CCS3)=NO1 [Compound 6]
Plant response rating, Crabgrass, Large ([1]; 125 g ai/ha): 80
Plant response rating, Crabgrass, Large ([1]; 500 g ai/ha): 100
Plant response rating, Foxtail, Giant ([2]; 125 g ai/ha): 80
Plant response rating, Foxtail, Giant ([2]; 500 g ai/ha): 100
Plant response rating, Morningglory ([3]; 125 g ai/ha): 90
Plant response rating, Morningglory ([3]; 500 g ai/ha): 100
Plant response rating, Pigweed ([4]; 125 g ai/ha): 60
Plant response rating, Pigweed ([4]; 500 g ai/ha): 100
Plant response rating, Velvetleaf ([5]; 125 g ai/ha): 0
Plant response rating, Velvetleaf ([5]; 500 g ai/ha): 80
Plant response rating, Wheat ([6]; 125 g ai/ha): 0
Plant response rating, Wheat ([6]; 500 g ai/ha): 0
Plant response rating, Crabgrass, Large ([7]; 125 g ai/ha): 80
Plant response rating, Crabgrass, Large ([7]; 500 g ai/ha): 90
Plant response rating, Foxtail, Giant ([8]; 125 g ai/ha): 80
Plant response rating, Foxtail, Giant ([8]; 500 g ai/ha): 90
Plant response rating, Pigweed ([9]; 125 g ai/ha): 50
Plant response rating, Pigweed ([9]; 500 g ai/ha): 90
Plant response rating, Velvetleaf ([10]; 125 g ai/ha): 60
Plant response rating, Velvetleaf ([10]; 500 g ai/ha): 80
Plant response rating, Wheat ([11]; 125 g ai/ha): 20
Plant response rating, Wheat ([11]; 500 g ai/ha): 30
Plant response rating, Wheat ([12]; 16 g ai/ha): 0
Plant response rating, Wheat ([12]; 31 g ai/ha): 0
Plant response rating, Wheat ([12]; 62 g ai/ha): 0
Plant response rating, Wheat ([12]; 125 g ai/ha): 0
Plant response rating, Oat, Wild (wild oat (Avena fatua); 16 g ai/ha): 30
Plant response rating, Oat, Wild (wild oat (Avena fatua); 31 g ai/ha): 45
Plant response rating, Oat, Wild (wild oat (Avena fatua); 62 g ai/ha): 60
Plant response rating, Oat, Wild (wild oat (Avena fatua); 125 g ai/ha): 60
Plant response rating, Corn (corn (Zea mays); 16 g ai/ha): 0
Plant response rating, Corn (corn (Zea mays); 31 g ai/ha): 0
Plant response rating, Corn (corn (Zea mays); 62 g ai/ha): 0
Plant response rating, Corn (corn (Zea mays); 125 g ai/ha): 0
Plant response rating, Foxtail, Giant ([13]; 16 g ai/ha): 0
Plant response rating, Foxtail, Giant ([13]; 31 g ai/ha): 95
Plant response rating, Foxtail, Giant ([13]; 62 g ai/ha): 100
Plant response rating, Foxtail, Giant ([13]; 125 g ai/ha): 100
Plant response rating, Johnsongrass ([14]; 16 g ai/ha): 45
Plant response rating, Johnsongrass ([14]; 31 g ai/ha): 70
Plant response rating, Johnsongrass ([14]; 62 g ai/ha): 98
Plant response rating, Johnsongrass ([14]; 125 g ai/ha): 100
Plant response rating, Morningglory ([15]; 16 g ai/ha): 0
Plant response rating, Morningglory ([15]; 31 g ai/ha): 0
Plant response rating, Morningglory ([15]; 62 g ai/ha): 0
Plant response rating, Morningglory ([15]; 125 g ai/ha): 0
Plant response rating, Nightshade ([16]; 16 g ai/ha): 0
Plant response rating, Nightshade ([16]; 31 g ai/ha): 45
Plant response rating, Nightshade ([16]; 62 g ai/ha): 95
Plant response rating, Nightshade ([16]; 125 g ai/ha): 98
Plant response rating, Rice (rice (Oryza sativa); 62 g ai/ha): 20
Plant response rating, Rice (rice (Oryza sativa); 250 g ai/ha): 20
Plant response rating, Ducksalad ([17]; 62 g ai/ha): 40
Plant response rating, Ducksalad ([17]; 250 g ai/ha): 65

CC1(C)CC(S(=O)(=O)Cc2c(C(F)(F)Cl)nc3n(c2=O)CCC3)=NO1 [Compound 18]
Plant response rating, Crabgrass, Large ([1]; 125 g ai/ha): 90
Plant response rating, Crabgrass, Large ([1]; 500 g ai/ha): 100
Plant response rating, Foxtail, Giant ([2]; 125 g ai/ha): 90
Plant response rating, Foxtail, Giant ([2]; 500 g ai/ha): 100
Plant response rating, Morningglory ([3]; 125 g ai/ha): 0
Plant response rating, Morningglory ([3]; 500 g ai/ha): 50
Plant response rating, Pigweed ([4]; 125 g ai/ha): 60
Plant response rating, Pigweed ([4]; 500 g ai/ha): 100
Plant response rating, Velvetleaf ([5]; 125 g ai/ha): 0
Plant response rating, Velvetleaf ([5]; 500 g ai/ha): 60
Plant response rating, Wheat ([6]; 125 g ai/ha): 0
Plant response rating, Wheat ([6]; 500 g ai/ha): 30
Plant response rating, Crabgrass, Large ([7]; 125 g ai/ha): 60
Plant response rating, Crabgrass, Large ([7]; 500 g ai/ha): 90
Plant response rating, Foxtail, Giant ([8]; 125 g ai/ha): 70
Plant response rating, Foxtail, Giant ([8]; 500 g ai/ha): 80
Plant response rating, Pigweed ([9]; 125 g ai/ha): 30
Plant response rating, Pigweed ([9]; 500 g ai/ha): 40
Plant response rating, Velvetleaf ([10]; 125 g ai/ha): 30
Plant response rating, Velvetleaf ([10]; 500 g ai/ha): 60
Plant response rating, Wheat ([11]; 125 g ai/ha): 0
Plant response rating, Wheat ([11]; 500 g ai/ha): 60
Plant response rating, Wheat ([12]; 16 g ai/ha): 0
Plant response rating, Wheat ([12]; 31 g ai/ha): 0
Plant response rating, Wheat ([12]; 62 g ai/ha): 50
Plant response rating, Oat, Wild (wild oat (Avena fatua); 16 g ai/ha): 0
Plant response rating, Oat, Wild (wild oat (Avena fatua); 31 g ai/ha): 0
Plant response rating, Oat, Wild (wild oat (Avena fatua); 62 g ai/ha): 0
Plant response rating, Oat, Wild (wild oat (Avena fatua); 125 g ai/ha): 45
Plant response rating, Corn (corn (Zea mays); 16 g ai/ha): 0
Plant response rating, Corn (corn (Zea mays); 31 g ai/ha): 0
Plant response rating, Corn (corn (Zea mays); 62 g ai/ha): 0
Plant response rating, Corn (corn (Zea mays); 125 g ai/ha): 0
Plant response rating, Foxtail, Giant ([13]; 16 g ai/ha): 0
Plant response rating, Foxtail, Giant ([13]; 31 g ai/ha): 80
Plant response rating, Foxtail, Giant ([13]; 62 g ai/ha): 85
Plant response rating, Foxtail, Giant ([13]; 125 g ai/ha): 98
Plant response rating, Johnsongrass ([14]; 16 g ai/ha): 15
Plant response rating, Johnsongrass ([14]; 31 g ai/ha): 20
Plant response rating, Johnsongrass ([14]; 62 g ai/ha): 60
Plant response rating, Johnsongrass ([14]; 125 g ai/ha): 85
Plant response rating, Morningglory ([15]; 16 g ai/ha): 0
Plant response rating, Morningglory ([15]; 31 g ai/ha): 0
Plant response rating, Morningglory ([15]; 62 g ai/ha): 0
Plant response rating, Morningglory ([15]; 125 g ai/ha): 45
Plant response rating, Nightshade ([16]; 16 g ai/ha): 0
Plant response rating, Nightshade ([16]; 31 g ai/ha): 0
Plant response rating, Nightshade ([16]; 62 g ai/ha): 0
Plant response rating, Nightshade ([16]; 125 g ai/ha): 95
Plant response rating, Rice (rice (Oryza sativa); 31 g ai/ha): 0
Plant response rating, Rice (rice (Oryza sativa); 62 g ai/ha): 0
Plant response rating, Rice (rice (Oryza sativa); 125 g ai/ha): 0
Plant response rating, Rice (rice (Oryza sativa); 250 g ai/ha): 0
Plant response rating, Ducksalad ([17]; 31 g ai/ha): 0
Plant response rating, Ducksalad ([17]; 62 g ai/ha): 0
Plant response rating, Ducksalad ([17]; 125 g ai/ha): 0
Plant response rating, Ducksalad ([17]; 250 g ai/ha): 0
